The nature of series [1]: Solid form stability at ambient conditions, XRPD. The format is physicochemical. The procedure:
X-Ray Powder Diffraction patterns were collected on a Bruker D8 diffractometer using Cu Kα radiation (40 kV, 40 mA), 0-20 goniometer, and divergence of V4 and receiving slits, a Ge monochromator and a Lynxeye detector. The instrument is performance checked using a certified Corundum standard (NIST 1976). The software used for data collection was Diffrac Plus XRD Commander v2.6.1 and the data were analysed and presented using Diffrac Plus EVA v13.0.0.2 or v15.0.0.0. Samples were run under ambient conditions as flat plate specimens using powder as received. The sample was gently packed into a cavity cut into polished, zero-background (510) silicon wafer. The sample was rotated in its own plane during analysis. The details of the data collection are: angular range: 2 to 42 °2θ; step size: 0.05 °2θ; collection time: 0.5 s/step. Amorphous material (˜60 mg) was generated as in Procedure 1. The amorphous material was suspended in different solvent systems (3 mL) at 50° C. A sample was withdrawn after 3 h and 24 h. The final product was filtered after 48 h and analysed by XRPD. The solids isolated were re-analysed again by XRPD after few days at ambient conditions (˜25° C. and ˜40% RH).

Series [2] has as its target KPC-2 β-lactamase (Klebsiella pneumoniae, UniProt Q9F663). Put plainly: Inhibition kinetics with nitrocefin as reporter substrate. The format is biochemical. As to conditions: 100 μM nitrocefin, 1×PBS pH 7.4, 25° C. The method, then: Inhibition or inactivation of KPC-2 by test inhibitors was assessed using 100 μM nitrocefin (NCF) as a reporter substrate. Assays were performed in 1×PBS pH 7.4, 0.1 mg/ml BSA, in 96-well half area plates, 50 μl reaction volume. NCF was dissolved in DMSO and diluted in assay buffer. Test inhibitors were dissolved in water or DMSO and serially diluted in the assay with final concentrations between 2000-0.195 μM.
The enzyme activity in the presence of varying concentrations of test inhibitor was determined by monitoring the hydrolysis of NCF spectrophotometrically at 486 nm, for 5 minutes, 25° C., using a SpectraMax Plus384 microplate reader with SoftMax Pro software (Molecular Devices). Data analysis was performed using GraphPad Prism (GraphPad Software, Inc.).
Progress curves were fit to a first-order rate decay equation (Eq. 1) to determine kobserved (kobs).
kobs vs. inhibitor concentration [I] curves were then fit to Eq.2 to determine the inhibitor dissociation constant (K) and the first order rate constant of enzyme inactivation at infinite inhibitor concentration (kinact). […] Yt=V0*(1−e^(−kobs*t))/kobs Eq. 1 Where Y is the absorbance at time t, V0 is the uninhibited enzyme velocity, kobs is the observed rate constant of the enzyme inactivation. kobs=kinact*[I]/([I]+K(1+S/Km)) Eq. 2 Where S is the NCF concentration, Km is the KPC-2 Km for NCF.

Series [3] concerns Eco.2845 (OXA-15, isogenic). Briefly: Standard BLI potentiation MIC assay. The format is cell-based, Eschericia coli. The settings on record: read-out: MIC of β-lactam with BLI. The procedure: (§1) The experimental protocol was performed according to Clinical and Laboratory Standards Institute (CLSI) guidelines with modifications as described below (CLSI guidelines can be derived from the CLSI document M07-A9 published in January 2012: “Methods for Dilution Antimicrobial Susceptibility Tests for Bacteria That Grow Aerobically; Approved Standard-Ninth Edition”).
(§2) To prepare for MIC testing, frozen glycerol stocks of clinical isolates (Klebsiella pneumoniae, Eschericia coli, Enterobacter spp, Citrobacter spp, or Pseudomonas aeruginosa) were used to streak for isolated colonies on rich, non-selective, tryptic soy agar containing 5% sheep's blood (TSAB). Frozen glycerol stocks of laboratory engineered, isogenic E. coli strains, which contain cloned β-lactamase expressing plasmids were used to streak for isolated colonies on rich, selective LB agar supplemented with 25 μg/mL tetracycline to maintain the plasmid. All strains were incubated at 37° C. for 18-24 hrs.
(§3) On the day of testing, primary cultures were started by scraping off 5-10 colonies from the TSAB plates containing clinical strains or the tetracycline supplemented LB plates containing engineered strains. The clinical strain material was suspended in ˜5 mL of cation adjusted Mueller Hinton Broth (CAMHB) in 14 mL culture tubes. The engineered strain material was suspended in CAMHB (supplemented with 25 μg/mL tetracycline) in 14 mL culture tubes. All strains were incubated at 37° C. with aeration (200 rpm) for ˜2 hrs until the optical density at 600 nm (OD600) was ≧0.1.
(§4) The two compound components of the assay were each diluted in CAMHB and added to the 96-well broth microdilution assay plates. 50 μL of the β-lactam was added to each well of the assay plate in 2-fold dilutions with final concentrations ranging from 128 to 0.13 μg/mL. 25 μL of the BLI compound was added to all wells in the broth microdilution plates at a final concentration of 4 μg/mL. Inoculum cultures were prepared by standardizing the primary cultures to OD600=0.1 and then adding 20 μL of the adjusted primary culture per 1 mL CAMHB for clinical strains or CAMHB (supplemented with tetracycline at 100 μg/mL) for engineered strains, so that the final inoculum density was ˜10^5 colony forming units per milliliter. Diluted inoculum cultures were used to inoculate 25 μL per well in 96-well broth microdilution assay plates. The final volume of each well was 100 μL and contained a β-lactam at different concentrations, a BLlcompound at 4 μg/mL concentration, the bacterial culture at an OD600 of approximately 0.001 and when necessary tetracycline at 25 μg/mL.
(§5) Plates were incubated for 18-20 hours at 37° C. with aeration (200 rpm). Following incubation, growth was confirmed visually placing plates over a viewing apparatus (stand with a mirror underneath) and then OD600 was measured using a SpectraMax 340PC384 plate reader (Molecular Devices, Sunnyvale, Calif.). Growth was defined as turbidity that could be detected with the naked eye or achieving minimum OD600 of 0.1. MIC values were defined as the lowest concentration producing no visible turbidity.

Series [4] has as its system Eco.2711 (KPC, clinical). Briefly: Standard BLI potentiation MIC assay. Type of series: cell-based, Eschericia coli. As to conditions: read-out: MIC of β-lactam with BLI. The procedure: as §1, §2, §3, §4, §5
Series [5] deals with Eco.2781 (KPC-2, TEM+, clinical). Put plainly: Standard BLI potentiation MIC assay. The format is cell-based, Eschericia coli. As to conditions: read-out: MIC of β-lactam with BLI. The method, then: as §1, §2, §3, §4, §5
Series [6] deals with Eco.2491 (CMY-2, clinical). Put plainly: Standard BLI potentiation MIC assay. The format is cell-based, Eschericia coli. As to conditions: read-out: MIC of β-lactam with BLI. The procedure: as §1, §2, §3, §4, §5
The subject of series [7] is Eco.2902 (Aba-ADC-33, isogenic). Put plainly: Standard BLI potentiation MIC assay. The settings on record: read-out: MIC of β-lactam with BLI. Type of series: cell-based, Eschericia coli. The method, then: as §1, §2, §3, §4, §5
The test system of series [8] is Eco.2806 (KPC-2, isogenic). Briefly: Standard BLI potentiation MIC assay. The format is cell-based, Eschericia coli. As to conditions: read-out: MIC of β-lactam with BLI. The procedure:
as §1, §2, §3, §4, §5

Series [9] deals with Eco.2840 (KPC-4, isogenic). Put plainly: Standard BLI potentiation MIC assay. Type of series: cell-based, Eschericia coli. As to conditions: read-out: MIC of β-lactam with BLI. The method, then:
as §1, §2, §3, §4, §5

Series [10] deals with Eco.2843 (DHA-1, isogenic). Put plainly: Standard BLI potentiation MIC assay. The format is cell-based, Eschericia coli. As to conditions: read-out: MIC of β-lactam with BLI. The method, then: as §1, §2, §3, §4, §5

The structures appear in SMILES notation.

KPC-2 β-lactamase, sequence (Q9F663 25-293 limits assumed): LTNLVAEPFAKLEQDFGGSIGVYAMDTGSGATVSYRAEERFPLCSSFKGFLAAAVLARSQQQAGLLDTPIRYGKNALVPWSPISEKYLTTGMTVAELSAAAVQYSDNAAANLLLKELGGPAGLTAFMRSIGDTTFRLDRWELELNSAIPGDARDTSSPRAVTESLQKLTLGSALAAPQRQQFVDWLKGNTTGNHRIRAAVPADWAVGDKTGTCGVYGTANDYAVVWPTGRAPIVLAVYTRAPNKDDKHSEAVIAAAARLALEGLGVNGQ

For the molecule `O=C1N2C[C@@H](CC[C@H]2c2nnco2)N1OS(=O)(=O)[O-].[Na+]` [Hydrate 1, sodium (2S,5R)-2-(1,3,4-oxadiazol-2-yl)-7-oxo-1,6-diazabicyclo[3.2.1]octan-6-yl sulfate], the “change of crystal form on storage” value in series [1] (25° C. at 40% relative humidity over 2 days (FIG. 2)) is recorded as “little to no change”. The “relative stability among the crystalline forms” value in [1] (ambient conditions (25° C. and 40% RH)) is recorded as “most stable crystalline form”. The “stability of the form (Summary of Forms, Description)” value in series [1] (sulfate) is on record as “Stable tri-hydrate”. In [2], this molecule had a Kinact/K of 134000 to 163000 M⁻¹ s⁻¹. For the same molecule, the MIC in series [3] is 1 to 2 µg/mL; in series [4], 0.25 to 0.5 µg/mL; in series [5] it was 0.25 to 0.5 µg/mL; in series [6], 0.25 to 0.5 µg/mL; in series [7], 1 to 2 µg/mL; in series [8], 0.25 to 0.5 µg/mL. Besides, the figures for the MIC in series [9] and in series [10] were 1 to 2 µg/mL and 0.25 to 0.5 µg/mL, respectively.

These data come from patent US9120795B2, “Crystalline form of a β-lactamase inhibitor” (Cubist Pharmaceuticals, Inc., priority 2013, dated 2015).
